Columns and labels:
[1] = test system: HFD-fed C57BL/6J mice; assay: Metabolic cages: indirect calorimetry, energy expenditure, motor activity; type: in vivo; settings: for All movements (direct locomotion and fine movements) versus control: three dark and two light cycles; for Mean respiratory exchange ratio (RER) versus control: week 6; for Increase of mean energy expenditure (EE): week 6, normalized on body weight, dark and light cycles
Description: Measure of Metabolic Activity. Metabolic determinations were performed at week 6, with four mice from each treatment group housed in Promethion metabolic cages (Sable Systems, Las Vegas, NV, USA). The indirect calorimetry system consists of metabolic cages identical to regular cages with bedding, each equipped with food hoppers connected to load cells for food intake monitoring. Prior to data collection, all mice were acclimated to the cages for 8 hours. A standard 12 hours light/dark cycle was maintained throughout the calorimetry studies, and data was collected over three dark cycles and two light cycles. Metabolic measurements such as EE and respiratory exchange […] (calculated from the ratio of CO2 volume produced and O2 volume consumed) were measured. Motor activity and food intake were also recorded. JC-1 Mitochondrial Membrane Potential Assay. C2Cl2 cells were seeded in 96-well plates at 1×10^4 cells/mL. After 24 hours, the culture medium was replaced with fresh medium containing carbonyl cyanide p-(trifluoromethoxy) phenylhydrazone (FCCP) from Sigma-Aldrich (St Louis, MO, USA), XP, XN, or DMSO vehicle. Cells were incubated in the presence of the treatments for 1 h and 5,5′,6,6′-tetrachloro-1,1′,3,3′-tetraethylbenzimidazolylcarbocyanine iodide (JC-1) dye was added to each well following the manufacturer's protocol (Cayman Chemical, Ann Arbor, MI, USA). JC-1 aggregates were detected with excitation and emission wavelengths of 540 and 570 nm. JC-1 monomers were detected with excitation and emission wavelengths of 485 and 535 nm on a BioTek Synergy HT plate reader.

[2] = test system: HFD-fed C57BL/6J mice; assay: HFD feeding study: body weight, glucose tolerance test, plasma metabolic parameters; type: in vivo; settings: for Final body weight: 11 weeks of HFD ± test compound; for Weight gain over the feeding period versus control HFD-fed mice: XP 30, XN 60 mg/kg body weight/day in HFD; for Glucose tolerance test (GTT) versus control: after 4 weeks of feeding, 6 hours fasting, 1.5 g/kg D-glucose i.p.; for Initial body weight: male mice, HFD ± test compound; for IL-6 / Insulin / MCP1 / PCSK9: plasma
Description: Animal Studies. All animal experiments were performed in accordance with institutional and National Health and Medical Research Council guidelines. The experimental protocol was approved by the Institutional Animal Care and Use Committee at Oregon State University and the studies were carried out in accordance with the approved protocol. Nine-week-old wildtype male C57BL/6J mice were obtained from Jackson Laboratory (Bar Harbor, ME, USA). Mice were single-housed in ventilated cages under a 12-12 h light-dark cycle and fed a HFD (Dyets Inc., Bethlehem, PA, USA) containing 60, 20, and 20% total calories from fat, carbohydrate, and protein, respectively. XN (99% purity, Hopsteiner Inc., New York, NY, USA) and XP (99% purity) were mixed into the diet at a concentration of 0.066% for XN and 0.033% for XP to reach respective doses of 60 mg/kg body weight/day and 30 mg/kg body weight/day. Studies included eight HFD-fed mice, eight XP-treated mice, and four XN-treated mice; food intake and body weights were recorded weekly. At week 4, glucose tolerance was tested after 6 hours fasting. Following intraperitoneal bolus injection of 1.5 g/kg of D-glucose, blood glucose levels were measured at 0, 15, 30, 60, and 120 minures using a One Touch UltraMini glucometer (LifeScan Inc., Milpitas, CA, USA). At the end of 11 weeks of feeding, mice were euthanized, and blood, liver, BAT, epididymal WAT, and cortex samples were collected for analyses.
(§1) Tris (pH=7.8) per gram of tissue. The homogenates were centrifuged at 10 000 g for 15 minutes at 4° C., and the supernatants were tested for ALT and AST activity using colorimetric assay kits purchased from Cayman Chemical (Ann Arbor, MI, USA). Triglycerides and total cholesterol were analyzed with commercially available kits (Cayman Chemical, Ann Arbor, MI, USA). Plasma glucose at week 11 was measured with a colorimetric assay, and plasma insulin, MCP-1, IL-6, and PCSK9 were analyzed by ELISA kits purchased from Abcam (Cambridge, UK).

[3] = test system: HFD-fed C57BL/6J mice; assay: AST and ALT enzymatic activities in liver homogenates; type: in vivo; settings: for ALT / AST: 11 weeks, mean ± SEM
Description: Measure of Metabolic Parameters and Liver Enzymes. ALT and AST enzymatic activities and liver samples (n=4-8 per group) were homogenized in 10 mL of 100 mM
as §1

[4] = test system: C2Cl2 cells; assay: JC-1 mitochondrial membrane potential assay; type: cell-based, murine; settings: compared with FCCP
Description: Mitochondrial respiration is coupled to ATP synthesis through an electrochemical proton gradient. Proton leak across the inner membrane results in depolarization of the mitochondrial transmembrane without deleteriously lowering the ATP synthesis. Proton leak can be mediated by UCPs and leads to the dissipation of the energy derived from substrate oxidation as heat. Considering the XP and XN effect on EE, the thermogenic activity was evaluated by assessing changes in UCP1 protein expression in the skeletal muscle, BAT, and WAT of HFD-fed mice. Unexpectedly, XP had no effect in UCP1 in the skeletal muscle, BAT, or WAT of HFD-fed mice (FIG. 18A). […] Therefore, the XP intrinsic protonophore properties were investigated by measured variations of mitochondrial membrane potential (ΔψM) in C2Cl2 cells stained with JC-1 dye. […]
Measure of Metabolic Activity. […] Metabolic measurements such as EE and respiratory exchange […] (calculated from the ratio of CO2 volume produced and O2 volume consumed) were measured. Motor activity and food intake were also recorded. […] JC-1 aggregates were detected with excitation and emission wavelengths of 540 and 570 nm. JC-1 monomers were detected with excitation and emission wavelengths of 485 and 535 nm on a BioTek Synergy HT plate reader.

[5] = test system: UCP1; assay: Western blotting of UCP1 in skeletal muscle, BAT and WAT; type: in vivo; settings: HFD-fed mice, versus control
Description: Western Blotting. Approximately 100 mg of frozen BAT and WAT was homogenized in RIPA buffer with protease and phosphatase inhibitors (Santa Cruz Biotechnology, Dallas, TX, USA). Tissues were sonicated for 30 seconds, and the homogenates were centrifuged at 15700 g for 10 minutes to collect the supernatants. Protein (30 μg) was separated by SDS-PAGE using 4-15% MP TGX Gels (Bio-Rad, Hercules, CA, USA) and blotted onto nitrocellulose membranes. The membranes were blocked with 5% nonfat milk for 90 minutes and incubated with antibodies against GAPDH (#0411, Santa Cruz Biotechnology, Dallas, TX, USA) or UCP1 (#10983, Genetex, Irvine, CA, USA) for 60 minutes. After a second reaction with secondary antibodies (horseradish peroxidase-conjugated IgG antibodies), the protein bands on the nitrocellulose membranes were visualized by enhanced chemiluminescence substrate on an electrochemical luminescence (ECL) imager (Thermo Fisher Scientific, Waltham, MA, USA). Band intensities were quantified by densitometry using Image J software.

| SMILES | All movements (direct locomotion and fine movements) versus control [1] | Mean respiratory exchange ratio (RER) versus control [1] | Increase of mean energy expenditure (EE) ([1]; versus control) | Plasma concentrations of PCSK9 versus control ([2]; 11 weeks) | Final body weight ([2]; mean ± SEM) | Fasting glucose ([2]; 11 weeks, mean ± SEM) | Plasma cholesterol ([2]; 11 weeks, mean ± SEM) | Weight gain over the feeding period versus control HFD-fed mice [2] | Glucose tolerance test (GTT) versus control [2] | Initial body weight ([2]; mean ± SEM) | IL-6 ([2]; 11 weeks, mean ± SEM) | Insulin ([2]; 11 weeks, mean ± SEM) | MCP1 ([2]; 11 weeks, mean ± SEM) | PCSK9 ([2]; 11 weeks, mean ± SEM) | AST and ALT test results versus control [3] | ALT [3] | AST [3] | Effect on JC-1 aggregates/monomers ratio [4] | further results |
| --- | --- | --- | --- | --- | --- | --- | --- | --- | --- | --- | --- | --- | --- | --- | --- | --- | --- | --- | --- |
| COc1cc(O)c(CC=C(C)C)c(O)c1C(=O)/C=C/c1ccc(O)cc1 [XN, xanthohumol] | increased | increased | 4-8% | not affected | 44.25 ± 1.97 g | 142.67 ± 6.29 mg/dL | 170.88 ± 6.76 mg/dL | no change in weight | no effect on glucose clearance | 26.37 ± 0.22 g | 5.03 ± 3.3 pg/mL | 71.17 ± 34.38 μU/mL | 57.34 ± 15.74 pg/mL | 215 ± 35.12 ng/mL | did not change substantially | 0.22 ± 0.06 U/mL | 0.16 ± 0.03 U/mL | dose-dependent and milder than that of protonophore FCCP | Locomotor movement increased versus control ([1]; p=0.06): not; Plasma TGs versus control ([2]; 11 weeks): increase; HOMA-IR ([2]; 11 weeks, mean ± SEM): 26.76 ± 13.47; UCP1 protein expression in WAT [5]: decreased; UCP1 protein expression in skeletal muscle and BAT [5]: no significant changes |
| COc1cc(O)c(CC=C(C)C)c(O)c1-c1cc(-c2ccc(O)cc2)n(C)n1 [XP, 4-(5-(4-hydroxyphenyl)-1-methyl-1H-pyrazol-3-yl)-5-methoxy-2-(3-methylbut-2-en-1-yl)benzene-1,3-diol] | increased | increased | up to 27% | not affected | 37.87 ± 1.72 g | 128.98 ± 7.18 mg/dL | 160.47 ± 4.73 mg/dL | gained significantly less weight | improved glucose tolerance | 23.66 ± 0.70 g | 5.78 ± 2.04 pg/mL | 34.36 ± 3.73 μU/mL | 45.00 ± 4.68 pg/mL | 217.166 ± 26.88 ng/mL | did not change substantially | 0.38 ± 0.07 U/mL | 0.30 ± 0.06 U/mL | dose-dependent and milder than that of protonophore FCCP | Percent ambulatory time versus control ([1]; mouse, in vivo): increased; Increase of locomotor movement (direct locomotion) ([1]; versus control): 75-135%; Increase of mean energy expenditure (EE) ([1]; versus control, listed as 4-(5-(4-hydroxyphenyl)-1-methyl-1h-pyrazol-3-yl)-5-methoxy-2-(3-methylbut-2-en-1)): 20-27%; IL-6 plasma level versus control ([2]; 11 weeks): not significantly different; MCP-1/CCL2 plasma levels versus control ([2]; 11 weeks): not decreased; Triglycerides (TG) and total cholesterol concentrations in plasma versus control ([2]; 11 weeks): no changes; Plasma TG ([2]; 11 weeks, mean ± SEM): 81.81 ± 4.33 mg/dL; Decrease of HOMA-IR (insulin resistance score) ([2]; after 11 weeks of feeding, versus control): 77.9%; Fasting glucose a ([2]; measured at 4 weeks, mean ± SEM): 143.62 ± 7.54 mg/dL; Decrease in liver enzymes (AST, ALT) ([3]; versus control, not significant): 30%; UCP1 protein expression in skeletal muscle, BAT, or WAT [5]: no effect |
